Literature values, collected in patent US20240207251A1, “PHARMACEUTICAL COMPOSITION CONTAINING ARTESUNATE OR SALT THEREOF AND PYRONARIDINE OR SALT THEREOF, FOR ANTIPYRESIS, ANTI-INFLAMMATORY EFFICACY, ANTI-VIRAL EFFICACY AND TREATMENT OR PREVENTION OF COVID-19, AND METHOD USING SAME” (priority 2021, published 2024).

Assays:
SARS-COV 2 = conditions: reported by Joon-Yong Bae et al., bioRxiv, Jul. 28, 2020
influenza virus = conditions: reported by Joon-Yong Bae et al., bioRxiv, Jul. 28, 2020

Structure (SMILES)	in vitro anti-viral action on COVID-19 (SARS-COV 2)	in vitro anti-viral action on influenza (influenza virus)
C[C@H]1[C@H](OC(=O)CCC(=O)O)O[C@@H]2O[C@@]3(C)CC[C@H]4[C@H](C)CC[C@@H]1[C@@]24OO3 [artesunate, dihydroartemisinine-12-alpha-succinate]	in vitro anti-viral action	in vitro anti-viral action
COc1ccc2nc3cc(Cl)ccc3c(Nc3cc(CN4CCCC4)c(O)c(CN4CCCC4)c3)c2n1 [pyronaridine, 4-[(7-chloro-2-methoxybenzo[b]-1,5-naphthyridin-10-yl)amino]-2,6-bis(1-pyrrolidinylmethyl)phenyl]	in vitro anti-viral action	in vitro anti-viral action
